Assay results as given in US10781224B2, “Bis(oxymethyl)phosphinic acid and biogenic metal salts thereof as regulators of plant growth and development” (priority 2016, dated 2020).

What was measured:
[1] = tested on: winter wheat (Vershin variety); test: Winter wheat seed treatment with BHMPA salts: germination energy and germination rate; format: in vivo
How it was run: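 Corn, winter wheat and rice seeds (50 per dish, on filter paper) were soaked for 1 h in BHMPA or its metal salts at 1·10^−6-1·10^−12%, with water as control. Germination energy was read on day 4 and germination rate on day 8 for wheat and day 7 for rice and corn, following GOST 12038-84, as the mean of four replicates.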

[2] = tested on: corn (Krasnodar 385 MV variety); test: Corn seed treatment with BHMPA salts: germinating power; format: in vivo
How it was run: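 Seeds (50 per Petri dish on two layers of filter paper) soaked 1 h in BHMPA or its Ca, Mg, Na, Co, Mn, Cu or Zn salts at 1·10^−6-1·10^−12%, with water controls. Germination energy read on day 4, germination on day 8 (wheat) or day 7 (rice, corn), as % means of four replicates. Germinating power taken as root and sprout length plus wet and dry mass per 100 seedlings.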

[3] = winter wheat Vershin, 1·10^−6% solution
[4] = winter wheat Vershin, 1·10^−7% solution
[5] = winter wheat Vershin, 1·10^−8% solution
[6] = winter wheat Vershin, 1·10^−9% solution
[7] = winter wheat Vershin, 1·10^−10% solution
[8] = winter wheat Vershin, 1·10^−11% solution
[9] = winter wheat Vershin, 1·10^−12% solution
[10] = winter wheat, comparative study vs Melaphen, 1·10^−11% solution
[11] = corn seeds, solution concentration 1 · 10^−6%, magnesium salt of BHMPA
[12] = corn seeds, solution concentration 1 · 10^−7%, magnesium salt of BHMPA
[13] = corn seeds, solution concentration 1 · 10^−8%, magnesium salt of BHMPA
[14] = corn seeds, solution concentration 1 · 10^−9%, magnesium salt of BHMPA
[15] = corn seeds, solution concentration 1 · 10^−10%, magnesium salt of BHMPA
[16] = corn seeds, solution concentration 1 · 10^−11%, magnesium salt of BHMPA
[17] = corn seeds, solution concentration 1 · 10^−12%, magnesium salt of BHMPA
[18] = corn, over the tested concentrations

SMILES: O=P([O-])(CO)CO.O=P([O-])(CO)CO.[Mg+2] [Mg-salt, Magnesium BHMPA Salt]
- Germination energy [1, 3]: 85.0%
- Germination rate [1, 3]: 89.3%
- Germination energy [1, 4]: 88.4%
- Germination rate [1, 4]: 92.0%
- Germination energy [1, 5]: 88.8%
- Germination rate [1, 5]: 92.0%
- Germination energy [1, 6]: 89.3%
- Germination rate [1, 6]: 93.0%
- Germination energy [1, 7]: 89.9%
- Germination rate [1, 7]: 93.3%
- Germination energy [1, 8]: 93.1%
- Germination rate [1, 8]: 96.0%
- Germination energy [1, 9]: 90.0%
- Germination rate [1, 9]: 93.3%
- Germination energy [1, 10]: 93.3%
- Germination rate [1, 10]: 96.7%
- optimum concentration for treating corn seeds before sowing ([2]; corn): 1·10^−9%
- Length, root [2, 11]: 6.4 cm
- Length, root, + % to control [2, 11]: 21%
- Length, sprout [2, 11]: 2.9 cm
- Length, sprout, + % to control [2, 11]: −12%
- Mass, dry, root [2, 11]: 1.60 g/100 plantlings
- Mass, dry, root, + % to control [2, 11]: 9.5%
- Mass, dry, sprout [2, 11]: 1.07 g/100 plantlings
- Mass, dry, sprout, + % to control [2, 11]: 11%
- Mass, wet, root [2, 11]: 10.29 g/100 plantlings
- Mass, wet, root, + % to control [2, 11]: 17%
- Mass, wet, sprout [2, 11]: 7.17 g/100 plantlings
- Mass, wet, sprout, + % to control [2, 11]: 12%
- Length, root [2, 12]: 7.0 cm
- Length, root, + % to control [2, 12]: 32%
- Length, sprout [2, 12]: 3.3 cm
- Length, sprout, + % to control [2, 12]: 0%
- Mass, dry, root [2, 12]: 1.81 g/100 plantlings
- Mass, dry, root, + % to control [2, 12]: 24%
- Mass, dry, sprout [2, 12]: 1.12 g/100 plantlings
- Mass, dry, sprout, + % to control [2, 12]: 17%
- Mass, wet, root [2, 12]: 10.86 g/100 plantlings
- Mass, wet, root, + % to control [2, 12]: 24%
- Mass, wet, sprout [2, 12]: 7.93 g/100 plantlings
- Mass, wet, sprout, + % to control [2, 12]: 23.5%
- Length, root [2, 13]: 8.5 cm
- Length, root, + % to control [2, 13]: 60%
- Length, sprout [2, 13]: 3.5 cm
- Length, sprout, + % to control [2, 13]: 6%
- Mass, dry, root [2, 13]: 1.91 g/100 plantlings
- Mass, dry, root, + % to control [2, 13]: 31%
- Mass, dry, sprout [2, 13]: 1.19 g/100 plantlings
- Mass, dry, sprout, + % to control [2, 13]: 24%
- Mass, wet, root [2, 13]: 11.64 g/100 plantlings
- Mass, wet, root, + % to control [2, 13]: 33%
- Mass, wet, sprout [2, 13]: 8.89 g/100 plantlings
- Mass, wet, sprout, + % to control [2, 13]: 38%
- Length, root [2, 14]: 9.1 cm
- Length, sprout [2, 14]: 3.8 cm
- Mass, dry, root [2, 14]: 2.02 g/100 plantlings
- Mass, dry, root, + % to control [2, 14]: 38%
- Mass, dry, sprout [2, 14]: 1.27 g/100 plantlings
- Mass, dry, sprout, + % to control [2, 14]: 32%
- Mass, wet, root [2, 14]: 12.42 g/100 plantlings
- Mass, wet, root, + % to control [2, 14]: 42%
- Mass, wet, sprout [2, 14]: 10.35 g/100 plantlings
- Mass, wet, sprout, + % to control [2, 14]: 61%
- Length, root [2, 15]: 8.3 cm
- Length, root, + % to control [2, 15]: 57%
- Length, sprout [2, 15]: 3.6 cm
- Length, sprout, + % to control [2, 15]: 9%
- Mass, dry, root [2, 15]: 1.96 g/100 plantlings
- Mass, dry, root, + % to control [2, 15]: 34%
- Mass, dry, sprout [2, 15]: 1.20 g/100 plantlings
- Mass, dry, sprout, + % to control [2, 15]: 25%
- Mass, wet, root [2, 15]: 11.86 g/100 plantlings
- Mass, wet, root, + % to control [2, 15]: 35%
- Mass, wet, sprout [2, 15]: 8.62 g/100 plantlings
- Mass, wet, sprout, + % to control [2, 15]: 34%
- Length, root [2, 16]: 8.1 cm
- Length, root, + % to control [2, 16]: 53%
- Length, sprout [2, 16]: 3.0 cm
- Length, sprout, + % to control [2, 16]: −9%
- Mass, dry, root [2, 16]: 1.81 g/100 plantlings
- Mass, dry, root, + % to control [2, 16]: 24%
- Mass, dry, sprout [2, 16]: 1.10 g/100 plantlings
- Mass, dry, sprout, + % to control [2, 16]: 14.5%
- Mass, wet, root [2, 16]: 10.04 g/100 plantlings
- Mass, wet, root, + % to control [2, 16]: 14%
- Mass, wet, sprout [2, 16]: 8.18 g/100 plantlings
- Mass, wet, sprout, + % to control [2, 16]: 27%
- Length, root [2, 17]: 7.8 cm
- Length, root, + % to control [2, 17]: 47%
- Length, sprout [2, 17]: 2.8 cm
- Length, sprout, + % to control [2, 17]: −15%
- Mass, dry, root [2, 17]: 1.57 g/100 plantlings
- Mass, dry, root, + % to control [2, 17]: 7.5%
- Mass, dry, sprout [2, 17]: 0.94 g/100 plantlings
- Mass, dry, sprout, + % to control [2, 17]: −2%
- Mass, wet, root [2, 17]: 9.18 g/100 plantlings
- Mass, wet, root, + % to control [2, 17]: 5%
- Mass, wet, sprout [2, 17]: 7.04 g/100 plantlings
- Mass, wet, sprout, + % to control [2, 17]: 10%
- Length, root, + % to control ([2]; corn, 1·10^−9% solution): 72%
- Length, sprout, + % to control ([2]; corn, 1·10^−9% solution): 15%
- Mass, dry, root, + % to control ([2]; corn, 1·10^−9% solution): 38%
- Mass, dry, sprout, + % to control ([2]; corn, 1·10^−9% solution): 32%
- Mass, wet, root, + % to control ([2]; corn, 1·10^−9% solution): 42%
- Mass, wet, sprout, + % to control ([2]; corn, 1·10^−9% solution): 61%
- increase of germinating power of the roots [2, 18]: 21%-72%
- sprout length changes [2, 18]: −15% to +15%
